These are literature values, as cited in patent publication US20220175718A1, “TRANSDERMAL PHARMACEUTICAL FORMULATIONS FOR THE TREATMENT OF CANCER” (PIKE THERAPEUTICS, INC., priority 2020, published 2022).

In one data set the target is CB2 (Homo sapiens, UniProt P34972). Conditions: for selectivity for CB2 over CB1: given as ×, fold or times.
Another data set addresses CB1 (Homo sapiens, UniProt P21554).

CB2, sequence (P34972 whole entry, species assumed): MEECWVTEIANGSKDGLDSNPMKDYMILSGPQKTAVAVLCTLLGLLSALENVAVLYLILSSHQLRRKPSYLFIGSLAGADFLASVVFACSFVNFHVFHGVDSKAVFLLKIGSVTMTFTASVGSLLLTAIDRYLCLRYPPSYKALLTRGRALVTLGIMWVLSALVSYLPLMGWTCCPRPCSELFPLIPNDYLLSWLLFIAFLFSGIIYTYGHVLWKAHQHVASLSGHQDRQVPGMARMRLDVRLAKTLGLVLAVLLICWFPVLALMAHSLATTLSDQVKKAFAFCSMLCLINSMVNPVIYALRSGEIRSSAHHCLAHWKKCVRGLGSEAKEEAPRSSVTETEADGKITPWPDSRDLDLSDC
CB1, sequence (P21554 whole entry, species assumed): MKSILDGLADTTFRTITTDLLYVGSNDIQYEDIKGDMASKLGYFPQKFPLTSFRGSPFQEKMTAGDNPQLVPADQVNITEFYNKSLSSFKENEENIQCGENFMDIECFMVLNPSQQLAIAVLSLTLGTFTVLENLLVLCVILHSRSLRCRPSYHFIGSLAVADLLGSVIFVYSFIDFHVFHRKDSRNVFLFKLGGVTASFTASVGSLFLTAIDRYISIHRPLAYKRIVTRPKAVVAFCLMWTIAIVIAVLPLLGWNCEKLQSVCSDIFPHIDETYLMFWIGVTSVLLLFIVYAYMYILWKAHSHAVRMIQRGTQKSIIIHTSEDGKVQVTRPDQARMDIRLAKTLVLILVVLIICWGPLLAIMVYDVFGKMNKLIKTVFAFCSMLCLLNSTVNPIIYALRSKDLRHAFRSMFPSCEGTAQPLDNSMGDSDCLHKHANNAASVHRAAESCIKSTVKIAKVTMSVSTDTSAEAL

Broadly, the Ki is the dissociation constant of the complex between target and ligand, obtained from inhibition or displacement. On to `CCCCCn1cc(C(=O)c2ccc(Cl)c3ccccc23)c2ccccc21` [JWH-398], for which the figures for the Ki at CB2 and at CB1 were 2.8 nM and 2.3 nM, respectively.
`CCCn1c(C)c(C(=O)c2ccc(C)c3ccccc23)c2ccccc21` [JWH-148]: the “selectivity for CB2 over CB1” value at CB2 is reported as “more than 8”.
Take `CCCn1cc(C(=O)c2ccc(C)c3ccccc23)c2ccccc21` [JWH-120]: the “selectivity for CB2 over CB1” value at CB2 is recorded as 173.
With `CCCCCCC(C)(C)c1cc(OC)c2c(c1)OC(C)(C)C1CCC(O)CC21` (stereo not drawn) [JWH-350, 11-nor-1-methoxy-3-(1′,1′-dimethylheptyl)-9α-hydroxyhexahydrocannabinol], the “selectivity for CB2 over CB1” value on CB2 is 33.
On to `CCCCCn1cc(C(=O)c2cccc3cccc(Br)c23)c2ccccc21` [JWH-424], for which the Ki at CB2 was 5.44 nM; at CB1, 20.9 nM.
On to `CCCCCCC(C)(C)c1cc(O)c2c(c1)oc(=O)c1ccc(OC)cc12` [AM-1710], for which the “selectivity for CB2 over CB1” value on CB2 was 54.
